Results as given in patent US10238111B2, “Fungicidal compositions” (Dow AgroSciences LLC, priority 2014, dated 2019).

Columns and labels:
Assay type in all cases: physicochemical
[1] = Accelerated storage stability of Compound A in liquid compositions, 2 weeks at 54° C. (HPLC)
Method: The test compositions were prepared in a manner similar to that described in Example 1 using one or more of Compound A, prothioconazole, pyraclostrobin, benzyl acetate, and AMD 810, and a third solvent chosen from cyclohexanone, acetophenone, 2-heptanone, 2-heptanal, oleyl alcohol or 2-ethylhexanol.

[2] = Solubility of Compound A and prothioconazole in benzyl acetate/AMD810 blends at 10° C. (HPLC); details: both actives saturated
Method: A study of the Compound A and prothioconazole solubility in blends of benzyl acetate/AMD810 was conducted. To each solvent blend both actives were added until each was saturated and the resulting mixtures were then stored at 10° C. until equilibrium was obtained. Aliquots of the supernatant layer were taken from each sample, filtered (0.45 μm mesh) and analyzed by HPLC to determine the solution concentration of each active in the blends.

[3] = Approximate (relative) solubility of active ingredients in organic solvents at ambient temperature; details: 0.2 g Compound A mixed with 1.38 g cyclohexanone
Method: The approximate solubility of Compound A was determined by mixing a known mass of the active ingredient with an increasing mass of each solvent at ambient temperature. […] The solubility of Compound A in the solvents used in this screening procedure was generally classified within the following concentration ranges: […]

SMILES: COc1ccnc(C(=O)N[C@H]2COC(=O)[C@H](Cc3ccccc3)[C@@H](OC(=O)C(C)C)[C@H](C)OC2=O)c1OCOC(=O)C(C)C [Compound A, propanoic acid, 2-methyl-, [[4-methoxy-2-[[[(3S,7R,8R,9S)-9-methyl-8-(2-methyl-1-oxopropoxy)-2,6-dioxo-7-(phenylmethyl)-1,5-dioxonan-3-yl]amino]carbonyl]-3-pyridinyl]oxy]methyl ester]
- Compound A after Storage (% retention) ([1]; wt %: Compound A 3.4, AMD 810 96.0, third solvent none): 49^ % retention
- Compound A after Storage (% retention) ([1]; wt %: Compound A 4.9, benzyl acetate 94.1, third solvent none): 85^ % retention
- Compound A after Storage (% retention) ([1]; wt %: Compound A 12.0, cyclohexanone 85.7): 96^ % retention
- Compound A Solubility at 10° C. ([2]; benzyl acetate to AMD810 in blend 0 wt %): 3.3 % w/w
- Compound A Solubility at 10° C. ([2]; benzyl acetate to AMD810 in blend 20 wt %): 4.3 % w/w
- Compound A Solubility at 10° C. ([2]; benzyl acetate to AMD810 in blend 40 wt %): 6.5 % w/w
- Compound A Solubility at 10° C. ([2]; benzyl acetate to AMD810 in blend 60 wt %): 11.0 % w/w
- Compound A Solubility at 10° C. ([2]; benzyl acetate to AMD810 in blend 80 wt %): 12.0 % w/w
- clear solution comprising Compound A [3]: 12.6 % w/w
